Converted amounts (≈) assume the structure as drawn. One block for each molecule: values may come before it.
Key:
Assay in all cases: MIC, microdilution broth method (NCCLS)
Format in all cases: cell-based
S. pneumoniae ATCC49619 = details: Streptococcus pneumoniae, Table 1, 6-Carbamoyl-3-Acyl Macrolide Derivatives, read-out: MIC Values, D: S. pneumoniae ATCC49619
Procedure, shortened: (§1)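 NCCLS M7-A4 broth microdilution: two-fold drug dilutions in cation-adjusted Mueller-Hinton broth, inoculum approximately 5×10^4 CFU/well. Trays incubated at 35 °C for 16-20 hours. MIC read by comparing growth to compound-free growth controls.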

E. coli OC2605 = details: Escherichia coli, Table 1, 6-Carbamoyl-3-Acyl Macrolide Derivatives, read-out: MIC Values, A: E. coli OC2605
Procedure, shortened: as §1

E. faecalis ATCC29212 = details: Enterococcus faecalis, Table 1, 6-Carbamoyl-3-Acyl Macrolide Derivatives, read-out: MIC Values, C: E. faecalis ATCC29212
Procedure, shortened: as §1

S. aureus ATCC29213 = details: Staphylococcus aureus, Table 1, 6-Carbamoyl-3-Acyl Macrolide Derivatives, read-out: MIC Values, B: S. aureus ATCC29213
Procedure, shortened: as §1

H. influenzae ATCC49247 = details: Haemophilus influenzae, Table 1, 6-Carbamoyl-3-Acyl Macrolide Derivatives, read-out: MIC Values, E: H. influenzae ATCC49247
Procedure, shortened: as §1

SMILES: CC[C@H]1OC(=O)[C@H](C)[C@@H](OC(=O)COCc2ccccc2)[C@H](C)[C@@H](O[C@@H]2O[C@H](C)C[C@H](N(C)C)[C@H]2O)[C@](C)(OC(=O)NC/C=C/c2ccc(-c3ncccn3)cc2)C[C@@H](C)C(=O)[C@H](C)[C@H]2NC(=O)O[C@@]21C [Compound 16]
MIC (S. pneumoniae ATCC49619): 0.06 µg/mL (≈ 0.0608 µM) | MIC (E. coli OC2605): > 16 µg/mL | MIC (E. faecalis ATCC29212): 0.5 µg/mL (≈ 0.507 µM) | MIC (S. aureus ATCC29213): 1 µg/mL (≈ 1.01 µM) | MIC (H. influenzae ATCC49247): 8 µg/mL (≈ 8.11 µM)

SMILES: CC[C@H]1OC(=O)[C@H](C)[C@@H](OC(=O)C(C)C)[C@H](C)[C@@H](O[C@@H]2O[C@H](C)C[C@H](N(C)C)[C@H]2O)[C@](C)(OC(=O)NC/C=C/c2cccnc2)C[C@@H](C)C(=O)[C@H](C)[C@H]2NC(=O)O[C@@]21C [Compound 17]
MIC (S. pneumoniae ATCC49619): 0.06 µg/mL (≈ 0.0722 µM) | MIC (E. coli OC2605): 16 µg/mL (≈ 19.3 µM) | MIC (E. faecalis ATCC29212): 0.25 µg/mL (≈ 0.301 µM) | MIC (S. aureus ATCC29213): 0.5 µg/mL (≈ 0.602 µM) | MIC (H. influenzae ATCC49247): 1 µg/mL (≈ 1.2 µM)

SMILES: CC[C@H]1OC(=O)[C@H](C)[C@@H](OC(=O)c2ccccc2)[C@H](C)[C@@H](O[C@@H]2O[C@H](C)C[C@H](N(C)C)[C@H]2O)[C@](C)(OC(=O)NC/C=C/c2cccnc2)C[C@@H](C)C(=O)[C@H](C)[C@H]2NC(=O)O[C@@]21C [Compound 18]
MIC (S. pneumoniae ATCC49619): 0.12 µg/mL (≈ 0.139 µM) | MIC (E. coli OC2605): > 16 µg/mL | MIC (E. faecalis ATCC29212): 0.5 µg/mL (≈ 0.578 µM) | MIC (S. aureus ATCC29213): 4 µg/mL (≈ 4.62 µM) | MIC (H. influenzae ATCC49247): 8 µg/mL (≈ 9.25 µM)

SMILES: CC[C@H]1OC(=O)[C@H](C)[C@@H](OC(=O)Cc2cccnc2)[C@H](C)[C@@H](O[C@@H]2O[C@H](C)C[C@H](N(C)C)[C@H]2O)[C@](C)(OC(=O)NC/C=C/c2cccnc2)C[C@@H](C)C(=O)[C@H](C)[C@H]2NC(=O)O[C@@]21C [Compound 19]
MIC (S. pneumoniae ATCC49619): 0.06 µg/mL (≈ 0.0682 µM) | MIC (E. coli OC2605): 16 µg/mL (≈ 18.2 µM) | MIC (E. faecalis ATCC29212): 0.25 µg/mL (≈ 0.284 µM) | MIC (S. aureus ATCC29213): 1 µg/mL (≈ 1.14 µM) | MIC (H. influenzae ATCC49247): 1 µg/mL (≈ 1.14 µM)

SMILES: CC[C@H]1OC(=O)[C@H](C)[C@@H](OC(=O)Cc2cccnc2)[C@H](C)[C@@H](O[C@@H]2O[C@H](C)C[C@H](N(C)C)[C@H]2O)[C@](C)(OC(=O)NC/C=C/c2ccccc2)C[C@@H](C)C(=O)[C@H](C)[C@H]2NC(=O)O[C@@]21C [Compound 21]
MIC (S. pneumoniae ATCC49619): 0.06 µg/mL (≈ 0.0683 µM) | MIC (E. coli OC2605): 8 µg/mL (≈ 9.1 µM) | MIC (E. faecalis ATCC29212): 0.25 µg/mL (≈ 0.284 µM) | MIC (S. aureus ATCC29213): 0.5 µg/mL (≈ 0.569 µM) | MIC (H. influenzae ATCC49247): 2 µg/mL (≈ 2.28 µM)

SMILES: CC[C@H]1OC(=O)[C@H](C)[C@@H](OC(=O)Cc2ccccn2)[C@H](C)[C@@H](O[C@@H]2O[C@H](C)C[C@H](N(C)C)[C@H]2O)[C@](C)(OC(=O)NC/C=C/C=C/c2cccnc2)C[C@@H](C)C(=O)[C@H](C)[C@H]2NC(=O)O[C@@]21C [Compound 25, 2-Pyridineacetic acid, (3aS,4R,7R,8S,9S,10R, 11R,13R,15R,15aR)-4-ethyltetradecahydro-3a,7,9,11,13,15-hexamethyl-2,6,14-trioxo-11-[[[[(2E,4E)-5-(3-pyridinyl)-2,4-pentadienyl]amino]carbonyl]oxy]-10-[[3,4,6-trideoxy-3-(dimethylamino)-β-D-xylo-hexopyranosyl]oxy]-2H-oxacyclotetradecino[4,3-d]oxazol-8-yl ester]
MIC (S. pneumoniae ATCC49619): 0.03 µg/mL (≈ 0.0331 µM) | MIC (E. coli OC2605): 8 µg/mL (≈ 8.83 µM) | MIC (E. faecalis ATCC29212): 0.25 µg/mL (≈ 0.276 µM) | MIC (S. aureus ATCC29213): 0.5 µg/mL (≈ 0.552 µM) | MIC (H. influenzae ATCC49247): 2 µg/mL (≈ 2.21 µM)

Next, values leading:

MIC (S. pneumoniae ATCC49619): 0.03 µg/mL (≈ 0.0341 µM) | MIC (E. coli OC2605): 8 µg/mL (≈ 9.09 µM) | MIC (E. faecalis ATCC29212): 0.25 µg/mL (≈ 0.284 µM) | MIC (S. aureus ATCC29213): 0.5 µg/mL (≈ 0.568 µM) | MIC (H. influenzae ATCC49247): 1 µg/mL (≈ 1.14 µM)
SMILES: CC[C@H]1OC(=O)[C@H](C)[C@@H](OC(=O)Cc2ccccn2)[C@H](C)[C@@H](O[C@@H]2O[C@H](C)C[C@H](N(C)C)[C@H]2O)[C@](C)(OC(=O)NC/C=C/c2cccnc2)C[C@@H](C)C(=O)[C@H](C)[C@H]2NC(=O)O[C@@]21C [Compound 20]

MIC (S. pneumoniae ATCC49619): 0.03 µg/mL (≈ 0.0317 µM) | MIC (E. coli OC2605): 16 µg/mL (≈ 16.9 µM) | MIC (E. faecalis ATCC29212): 0.25 µg/mL (≈ 0.264 µM) | MIC (S. aureus ATCC29213): 0.5 µg/mL (≈ 0.528 µM) | MIC (H. influenzae ATCC49247): 2 µg/mL (≈ 2.11 µM)
SMILES: CC[C@H]1OC(=O)[C@H](C)[C@@H](OC(=O)Cc2cccnc2)[C@H](C)[C@@H](O[C@@H]2O[C@H](C)C[C@H](N(C)C)[C@H]2OC(C)=O)[C@](C)(OC(=O)NCc2cnc3ccccc3c2)C[C@@H](C)C(=O)[C@H](C)[C@H]2NC(=O)O[C@@]21C [Compound 22]

MIC (S. pneumoniae ATCC49619): 0.03 µg/mL (≈ 0.0331 µM) | MIC (E. coli OC2605): 16 µg/mL (≈ 17.7 µM) | MIC (E. faecalis ATCC29212): 0.25 µg/mL (≈ 0.276 µM) | MIC (S. aureus ATCC29213): 1 µg/mL (≈ 1.1 µM) | MIC (H. influenzae ATCC49247): 4 µg/mL (≈ 4.41 µM)
SMILES: CC[C@H]1OC(=O)[C@H](C)[C@@H](OC(=O)Cc2cccnc2)[C@H](C)[C@@H](O[C@@H]2O[C@H](C)C[C@H](N(C)C)[C@H]2O)[C@](C)(OC(=O)NC/C=C/C=C/c2cccnc2)C[C@@H](C)C(=O)[C@H](C)[C@H]2NC(=O)O[C@@]21C [Compound 23]

MIC (S. pneumoniae ATCC49619): < 0.015 µg/mL | MIC (E. coli OC2605): > 16 µg/mL | MIC (E. faecalis ATCC29212): 0.25 µg/mL (≈ 0.292 µM) | MIC (S. aureus ATCC29213): 0.5 µg/mL (≈ 0.583 µM) | MIC (H. influenzae ATCC49247): 2 µg/mL (≈ 2.33 µM)
SMILES: CC[C@H]1OC(=O)[C@H](C)[C@@H](OC(=O)C(C)C)[C@H](C)[C@@H](O[C@@H]2O[C@H](C)C[C@H](N(C)C)[C@H]2O)[C@](C)(OC(=O)NC/C=C/C=C/c2cccnc2)C[C@@H](C)C(=O)[C@H](C)[C@H]2NC(=O)O[C@@]21C [Compound 24]
